One assay has as its target Human FXIIa (Homo sapiens (Human), UniProt P00748). Put plainly: Factor XIIa (FXIIa) inhibitory activity, chromogenic substrate (Pefachrome XIIa) cleavage. Format: biochemical. The following applies: 10 min pre-incubation, Pefachrome XIIa 400 μM.
The target in the next assay is Human alpha-thrombin (Homo sapiens (Human), UniProt P00734). Put plainly: Thrombin counterscreen for selectivity, fluorogenic substrate cleavage. Type of assay: biochemical. As to conditions: 10 min pre-incubation, Boc-Val-Pro-Arg-AMC 20 μM. The protocol: Counterscreens for Selectivity:
Thrombin. In a 96-well white opaque plate, 80 μl of assay buffer was added to each well. Test compounds were added, and serially diluted as above, to generate a concentration range of approximately 1-100 μM. Human alpha-thrombin (Enzyme Research Labs) was diluted in assay buffer to a final concentration of 12.5 nM. 80 μl of this enzyme solution was added to the assay wells. The enzyme/compound mixtures were incubated for 10 minutes at room temperature. Fluorogenic substrate (Boc-Val-Pro-Arg-7-amido-4-methylcoumarin; Sigma) was added to assay wells at a final concentration of 20 μM. The assay plate was spun for 1 minute at 1500 g and then read at 37° C. in a SpectraMax M2 plate reader (λex=380 nm and λem=460 nm). Activity was quantified as the rate of change in fluorescence, which corresponds to the rate of substrate cleavage. IC50 values were determined as the concentration of inhibitor that produced 50% of the rate of change of control wells without any inhibitor. For compounds with activity <1 μM, the assay was repeated with a lower concentration range, typically from 10-1000 nM.

Molecules are shown by their SMILES.

Human FXIIa, sequence (P00748 373-615): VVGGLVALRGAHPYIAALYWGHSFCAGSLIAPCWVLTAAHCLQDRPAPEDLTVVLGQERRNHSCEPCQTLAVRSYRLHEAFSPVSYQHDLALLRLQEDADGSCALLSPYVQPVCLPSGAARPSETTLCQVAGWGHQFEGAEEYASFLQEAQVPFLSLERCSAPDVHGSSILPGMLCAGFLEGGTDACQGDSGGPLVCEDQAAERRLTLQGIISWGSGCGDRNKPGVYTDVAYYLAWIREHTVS
Human FXIIa, sequence (P00748 20-372 partner): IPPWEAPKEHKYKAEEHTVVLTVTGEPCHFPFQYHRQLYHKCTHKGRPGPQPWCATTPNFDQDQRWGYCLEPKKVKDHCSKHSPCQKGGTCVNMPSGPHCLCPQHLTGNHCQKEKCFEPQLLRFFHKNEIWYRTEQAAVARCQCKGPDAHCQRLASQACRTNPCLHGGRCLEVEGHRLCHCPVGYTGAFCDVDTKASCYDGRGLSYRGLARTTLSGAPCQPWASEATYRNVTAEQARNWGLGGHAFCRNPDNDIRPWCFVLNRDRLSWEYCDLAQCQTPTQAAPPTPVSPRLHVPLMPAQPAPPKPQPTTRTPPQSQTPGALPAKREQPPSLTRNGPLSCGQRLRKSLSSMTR

Turning to `Cc1cccc2c1NCC[C@@H]2C(=O)n1nc2c(c1N)CCNC2` (single isomer, unassigned) [Example 176, (S*)-(3-amino-4,5,6,7-tetrahydro-pyrazolo[3,4-c]pyridin-2-yl)(8-methyl-1,2,3,4-tetrahydro-quinolin-4-yl)methanone], the IC50 against Human FXIIa was 100 nM; against Human alpha-thrombin, above 90000 nM.

Take `Nc1c2c(nn1C(=O)[C@H]1CCNc3ccc(F)cc31)COCC2` (single isomer, unassigned) [Example 196, (S*)-(3-amino-4,5-dihydropyrano[3,4-c]pyrazol-2(7H)-yl)(6-fluoro-1,2,3,4-tetrahydro-quinolin-4-yl)methanone]: the IC50 against Human FXIIa stood at 80 nM; on Human alpha-thrombin, 95000 nM.

In the case of `Cc1cccc2c1NCC[C@@H]2C(=O)n1nc2c(c1N)CCOC2` (single isomer, unassigned) [Example 198, (S*)-(3-amino-4,5-dihydropyrano[3,4-c]pyrazol-2(7H)-yl)(8-methyl-1,2,3,4-tetrahydro-quinolin-4-yl)methanone], the IC50 was 90 nM at Human FXIIa and above 150000 nM against Human alpha-thrombin.

Take `CN1CCc2nn(C(=O)C3CCCc4[nH]c(Cl)cc43)c(N)c2C1` (stereo not shown) [Example 3, (3-amino-5-methyl-4,5,6,7-tetrahydropyrazolo[4,3-c]pyridin-2-yl)(2-chloro-4,5,6,7-tetrahydro-1H-indol-4-yl)methanone]: the IC50 was 350 nM at Human FXIIa and above 35000 nM against Human alpha-thrombin.

Regarding `CCc1cc2c([nH]1)CCCC2C(=O)n1nc2c(c1N)CN(C(=O)OCc1ccccc1)CC2` (stereo not shown) [Example 4, Benzyl 3-amino-2-(2-ethyl-4,5,6,7-tetrahydro-1H-indole-4-carbonyl)-6,7-dihydro-2H-pyrazolo[4,3-c]pyridine-5(4H)-carboxylate], the half-maximal inhibitory concentration (IC50) is 300 nM on Human FXIIa and above 25000 nM against Human alpha-thrombin.

With `CCc1cc2c([nH]1)CCCC2C(=O)n1nc2c(c1N)CNCC2` (stereo not shown) [Example 6, (3-amino-4,5,6,7-tetrahydropyrazolo[4,3-c]pyridin-2-yl)(2-ethyl-4,5,6,7-tetrahydro-1H-indol-4-yl)methanone], the IC50 was 250 nM against Human FXIIa and above 50000 nM on Human alpha-thrombin.

As for `Cc1cc2c(C(=O)n3nc4c(c3N)CCN(C(=O)OC(C)(C)C)C4)cccc2[nH]1` [Example 7, Tert-butyl 3-amino-2-(2-methyl-1H-indole-4-carbonyl)-4,5-dihydro-2H-pyrazolo[3,4-c]pyridine-6(7H)-carboxylate], the figures for the IC50 on Human FXIIa and at Human alpha-thrombin were 70 nM and above 25000 nM, respectively.

On to `Cc1ccc2c(c1)C(C(=O)n1nc3c(c1N)CCN(S(C)(=O)=O)C3)CCN2` (stereo not shown) [Example 12, (3-amino-6-(methylsulfonyl)-4,5,6,7-tetrahydropyrazolo[3,4-c]pyridin-2-yl)(6-methyl-1,2,3,4-tetrahydroquinolin-4-yl)methanone], for which the IC50 against Human FXIIa was 300 nM; on Human alpha-thrombin it was above 55000 nM.

`CS(=O)(=O)N1CCc2c(nn(C(=O)C3CCNc4ccc(Cl)cc43)c2N)C1` (stereo not shown) [Example 14, (3-amino-6-(methylsulfonyl)-4,5,6,7-tetrahydropyrazolo[3,4-c]pyridin-2-yl)(6-chloro-1,2,3,4-tetrahydroquinolin-4-yl)methanone]: the IC50 against Human FXIIa turned out to be 40 nM; against Human alpha-thrombin it was 20000 nM.

Regarding `CS(=O)(=O)N1CCc2c(N)nn(C(=O)C3CCNc4ccc(Cl)cc43)c2C1` (stereo not shown) [Example 15, (3-amino-6-(methylsulfonyl)-4,5,6,7-tetrahydropyrazolo[3,4-c]pyridin-1-yl)(6-chloro-1,2,3,4-tetrahydroquinolin-4-yl)methanone], the IC50 at Human FXIIa is above 65000 nM; at Human alpha-thrombin, above 70000 nM.

Regarding `CCN1CCc2c(nn(C(=O)C3CCNc4ccccc43)c2N)C1` (stereo not shown) [Example 20, (3-amino-6-ethyl-4,5,6,7-tetrahydropyrazolo[3,4-c]pyridin-2-yl)(1,2,3,4-tetrahydroquinolin-4-yl)methanone], the IC50 at Human FXIIa was 150 nM; on Human alpha-thrombin, above 40000 nM.

Turning to `CCN1CCc2c(N)nn(C(=O)C3CCNc4ccccc43)c2C1` (stereo not shown) [Example 21, (3-amino-6-ethyl-4,5,6,7-tetrahydropyrazolo[3,4-c]pyridin-1-yl)(1,2,3,4-tetrahydroquinolin-4-yl)methanone], the IC50 at Human FXIIa was 1500 nM; against Human alpha-thrombin, above 50000 nM.

Take `CS(=O)(=O)N1CCc2c(nn(C(=O)C3CCNc4ccc(C(F)(F)F)cc43)c2N)C1` (stereo not shown) [Example 24, (3-amino-6-(methylsulfonyl)-4,5,6,7-tetrahydropyrazolo[3,4-c]pyridin-2-yl)(6-(trifluoromethyl)-1,2,3,4-tetrahydroquinolin-4-yl)methanone]: the IC50 was 100 nM against Human FXIIa and 25000 nM against Human alpha-thrombin.

Take `CS(=O)(=O)N1CCc2c(N)nn(C(=O)C3CCNc4ccc(C(F)(F)F)cc43)c2C1` (stereo not shown) [Example 25, (3-amino-6-(methylsulfonyl)-4,5,6,7-tetrahydropyrazolo[3,4-c]pyridin-1-yl)(6-(trifluoromethyl)-1,2,3,4-tetrahydroquinolin-4-yl)methanone]: the figures for the IC50 on Human FXIIa and on Human alpha-thrombin were 40000 nM and above 70000 nM, respectively.

As to `Cn1cc2c(c1)C(C(=O)n1nc3c(c1N)CCN(S(C)(=O)=O)C3)CCC2` (stereo not shown) [Example 26, (3-amino-6-(methylsulfonyl)-4,5,6,7-tetrahydropyrazolo[3,4-c]pyridin-2-yl)(2-methyl-4,5,6,7-tetrahydro-2H-isoindol-4-yl)methanone], the IC50 against Human FXIIa is 150 nM; against Human alpha-thrombin it was 4500 nM.

In the case of `Nc1c2c(nn1C(=O)C1CCNc3ccc(F)cc31)CN(c1ccccc1)CC2` (stereo not shown) [Example 28, (3-amino-6-phenyl-4,5,6,7-tetrahydropyrazolo[3,4-c]pyridin-2-yl)(6-fluoro-1,2,3,4-tetrahydroquinolin-4-yl)methanone], the IC50 is 160 nM against Human FXIIa and above 35000 nM against Human alpha-thrombin.

`CCc1ccc2c(c1)C(C(=O)n1nc3c(c1N)CCN(S(C)(=O)=O)C3)CCN2` (stereo not shown) [Example 30, (3-amino-6-(methylsulfonyl)-4,5,6,7-tetrahydropyrazolo[3,4-c]pyridin-2-yl)(6-ethyl-1,2,3,4-tetrahydroquinolin-4-yl)methanone]: the IC50 turned out to be 50 nM against Human FXIIa and 22000 nM against Human alpha-thrombin.

Regarding `Cc1cccc2c1NCCC2C(=O)n1nc2c(c1N)CCN(S(C)(=O)=O)C2` (stereo not shown) [Example 34, (3-amino-6-(methylsulfonyl)-4,5,6,7-tetrahydropyrazolo[3,4-c]pyridine-2-yl)(8-methyl-1,2,3,4-tetrahydroquinolin-4-yl)methanone], the IC50 at Human FXIIa was found to be 40 nM; on Human alpha-thrombin it was 23000 nM.

With `CS(=O)(=O)N1CCc2c(nn(C(=O)C3CCNc4c(F)cccc43)c2N)C1` (stereo not shown) [Example 37, (3-amino-6-(methylsulfonyl)-4,5,6,7-tetrahydropyrazolo[3,4-c]pyridin-2-yl)(8-fluoro-1,2,3,4-tetrahydroquinolin-4-yl)methanone], the figures for the IC50 against Human FXIIa and against Human alpha-thrombin were 100 nM and 25000 nM, respectively.

For `CC1(C)CC(C(=O)n2nc3c(c2N)CCN(S(C)(=O)=O)C3)c2ccccc2N1` (stereo not shown) [Example 39, (3-amino-6-(methylsulfonyl)-4,5,6,7-tetrahydropyrazolo[3,4-c]pyridin-2-yl)(2,2-dimethyl-1,2,3,4-tetrahydroquinolin-4-yl)methanone], the IC50 is 150 nM on Human FXIIa and 45000 nM against Human alpha-thrombin.

In the case of `CS(=O)(=O)N1CCc2c(nn(C(=O)C3CCNc4ncccc43)c2N)C1` (stereo not shown) [Example 41, (3-amino-6-(methylsulfonyl)-4,5,6,7-tetrahydropyrazolo[3,4-c]pyridin-2-yl)(1,2,3,4-tetrahydro-1,8-naphthyridin-4-yl)methanone], the IC50 worked out at 1700 nM against Human FXIIa and 4400 nM at Human alpha-thrombin.

On to `CC(C)c1ccc2c(c1)C(C(=O)n1nc3c(c1N)CCN(S(C)(=O)=O)C3)CCN2` (stereo not shown) [Example 45, (3-amino-6-(methylsulfonyl)-4,5,6,7-tetrahydropyrazolo[3,4-c]pyridin-2-yl)(6-isopropyl-1,2,3,4-tetrahydroquinolin-4-yl)methanone], for which the results for the IC50 at Human FXIIa and on Human alpha-thrombin were 2200 nM and 45000 nM, respectively.

With `CS(=O)(=O)N1CCc2c(nn(C(=O)C3CCNc4ccc(-c5ccccc5)cc43)c2N)C1` (stereo not shown) [Example 49, (3-amino-6-(methylsulfonyl)-4,5,6,7-tetrahydropyrazolo[3,4-c]pyridin-2-yl)(6-phenyl-1,2,3,4-tetrahydroquinolin-4-yl)methanone], the IC50 against Human FXIIa came to 11000 nM; against Human alpha-thrombin, 17000 nM.

Take `Cc1cc(F)cc2c1NCCC2C(=O)n1nc2c(c1N)CCN(S(C)(=O)=O)C2` (stereo not shown) [Example 51, (3-amino-6-(methylsulfonyl)-4,5,6,7-tetrahydropyrazolo[3,4-c]pyridin-2-yl)(6-fluoro-8-methyl-1,2,3,4-tetrahydroquinolin-4-yl)methanone]: the values for the IC50 on Human FXIIa and on Human alpha-thrombin were 20 nM and 15000 nM, respectively.

As to `CCc1cc(C)c2c(c1)C(C(=O)n1nc3c(c1N)CCN(S(C)(=O)=O)C3)CCN2` (stereo not shown) [Example 55, (3-amino-6-(methylsulfonyl)-4,5,6,7-tetrahydropyrazolo[3,4-c]pyridin-2-yl)(6-ethyl-8-methyl-1,2,3,4-tetrahydroquinolin-4-yl)methanone], the results for the IC50 on Human FXIIa and against Human alpha-thrombin were 40 nM and above 70000 nM, respectively.

For `CS(=O)(=O)N1CCc2c(nn(C(=O)C3CCNc4c(Cl)cccc43)c2N)C1` (stereo not shown) [Example 57, (3-amino-6-(methylsulfonyl)-4,5,6,7-tetrahydropyrazolo[3,4-c]pyridin-2-yl)(8-chloro-1,2,3,4-tetrahydroquinolin-4-yl)methanone], the results for the IC50 on Human FXIIa and at Human alpha-thrombin were 50 nM and 16000 nM, respectively.

The values above are taken from US11312723B2, “Pyranopyrazole and pyrazolopyridine immunomodulators for treatment of autoimmune diseases” (The Rockefeller University, priority 2017, dated 2022).
